{"source": "patent US20190125790A1", "about": "“USE OF HYPOCHLOROUS ACID AS A TOPICAL ANTIMICROBIAL” (BIIOSMART TECHNOLOGIES LLC, priority 2016, published 2019)", "tested_on": "Staphylococcus epidermidis", "assay": "Antimicrobial efficacy of HOCl skin cleanser (Table 1)", "format": "cell-based", "conditions": "0.01% HOCl; 30 seconds"}
{"smiles": "OCl", "note": "[HOCl, hypochlorous acid]", "values": [{"measurement": "% Reduction", "value": 99.999, "unit": "%"}, {"measurement": "Log Reduction", "value": ">5.8", "unit": "Log10"}]}
